From publication PMC10488193, “Evaluation of the Chemical Stability, Membrane Permeability and Antiproliferative Activity of Cyclic Diarylheptanoids from European Hornbeam (Carpinus betulus L.)” (International Journal of Molecular Sciences, 2023)
Where “and” joins values, the source holds several entries; their conditions need not be identical. Equal values may be shown once. Entries after “also recorded” stand apart in the source; their conditions may differ. Read-outs that look alike come from different tables or passages of the source. Marks after values point to notes of the source that are not given here.

How the values were obtained:
[1] = Aqueous stability at biorelevant pH values, 37 °C (UHPLC-DAD); type: physicochemical; conditions: for aqueous stability at pH 1.2, 6.8, 7.4 (in words): 37 °C, up to 81 h; for half-life at 100 µM / degradation rate constant k: first-order; for half-life at 100 µM: read-out: half-life t1/2 (converted)
Method: For the analysis of the samples from the chemical stability as well as the PAMPA studies, sample concentrations were determined using our previously developed ultrahigh-performance liquid chromatography–diode array detection (UHPLC-DAD) method validated for linearity, precision and accuracy. Briefly, an ACQUITY UPLC H-Class PLUS System hyphenated with a quaternary solvent delivery pump (QSM), an auto-sampler manager (FTN), a column compartment (CM) and a photodiode array (PDA) detector (Waters Corporation) was employed. Stationary phase: Acquity BEH C18 column (100 × 2.1 mm i.d., 1.7 µm; Waters Corporation), column temperature: 30 °C. The mobile phase consisted of 0.3% acetic acid in water (eluent A) and acetonitrile (eluent B). The following gradient elution was applied at a flow rate of 0.3 mL/min: 0 min 12.0% B, 19.0 min 13.5% B, 25.5 min 75.0% B, 26.0 min 100.0% B, 28.0 min 100.0% B, 28.5 min 12.0% B.
The buffers modelling the gastric fluid (pH 1.2), the intestinal fluid (pH 6.8) and the blood and the tissues (pH 7.4) were prepared as follows. Buffer pH = 1.2: 1.0 g NaCl and 3.5 mL HCl dissolved in distilled water, final volume: 500.0 mL. Buffer pH = 6.8: 20.2 g Na2HPO4∙7H2O and 3.4 g NaH2PO4∙H2O dissolved in distilled water, final volume: 1000.0 mL, pH adjustment with 0.5 M NaOH or 0.5 M HCl. Buffer pH = 7.4: one PBS tablet dissolved in 200.0 mL distilled water. The stock solutions of compounds 1–4 were prepared with dimethyl sulfoxide (DMSO) at a concentration of 10.0 mM. The stock solutions were diluted 100-fold with each buffer separately to obtain the working solutions (297.0 μL buffer + 3.0 μL stock solution). All working solutions were filtered through Phenex-RC 15 mm, 0.2 μm syringe filters (Gen-Lab Ltd., Budapest, Hungary). The samples were incubated for 81 h at 37 °C; aliquots were taken for analysis every 9 h in accordance with the time required to quantify the analytes of interest in one set of samples. The total incubation time of 81 h was applied to obtain data for ten measurement points. The previously described UHPLC-DAD method was used to examine the changes in compound concentrations (see Section 3.4).
For the determination of pH stability, the initial AUC values were compared with the data after 9 and 81 h using paired-sample t test; significant difference was reported at p < 0.05. The effects of the pH were analysed through one-way analysis of variance (ANOVA) followed by Tukey’s post hoc HSD test (p < 0.05). All experiments were performed in triplicates (n = 3).
We used the following equations to calculate the first-order reaction rate constant (k) and the half-life (t1/2) indicating the time required to reduce the concentration of diarylheptanoids by 50% [29]:ln (ct/c0) = −k × t(1) t1/2 = −ln 0.5 × k^−1(2) where ct is the concentration of the diarylheptanoids at time t, c0 is the initial concentration, k is the reaction rate constant, t is the treatment time.

[2] = tested on: A2058 (melanoma, derived from metastatic site: lymph node); test: In vitro antiproliferative activity, Alamar Blue assay; type: cell-based; conditions: Homo sapiens; A2058, 24 h treatment, then three days culture, n = 2; read-out: IC50 ± SD
Method: (§1) For the experiments, the following human cell lines were used: A2058 (melanoma, derived from metastatic site: lymph node), HepG2 (hepatocellular carcinoma), U87 (glioblastoma), HT-29 (colorectal carcinoma) and HL-60 (acute promyelocytic leukaemia). Cell lines were generous gifts from Dr. […] (Department of Experimental Pharmacology, National Institute of Oncology, Budapest, Hungary). […] The cultures were maintained at 37 °C in a humidified atmosphere with 5% CO2. The cells were grown to confluency and then divided into 96-well tissue culture plates (Sarstedt, Nümbrecht, Germany) with an initial cell number of 5000 cells/well. Cells were incubated at 37 °C in a 5% CO2 humidified atmosphere overnight. Before the assay, 50 μL of the supernatant was removed and replaced with a 50 μL serum-free medium (SFM). […] The cells were treated for 24 h with the compounds and negative control cells (no compound control) were treated with SFM only (incubated at 37 °C). […] The percentage of cytostasis was calculated with the following equation: […] Data were evaluated with Excel (version: 365; Microsoft, Redmond, WA, USA) and the curves were defined using Microcal OriginPro (version: 2018; OriginLab, Northampton, MA, USA) software. In each case, two independent experiments were carried out with four parallel measurements and the mean IC50 values together with ±SD were represented. The Excel (version: 365) (Microsoft, Redmond, WA, USA) and Microcal OriginPro (version: 2018) (OriginLab, Northampton, MA, USA) softwares were used for data evaluation.

[3] = tested on: HL-60 (acute promyelocytic leukaemia); test: as above; type: cell-based; conditions: Homo sapiens; HL-60, 24 h treatment, then three days culture, n = 2; read-out: IC50 ± SD
Method: as §1

[4] = tested on: HT-29 (colorectal carcinoma); test: as above; type: cell-based; conditions: Homo sapiens; HT-29, 24 h treatment, then three days culture, n = 2; read-out: IC50 ± SD
Method: as §1

[5] = tested on: HepG2 (hepatocellular carcinoma); test: as above; type: cell-based; conditions: Homo sapiens; HepG2, 24 h treatment, then three days culture, n = 2; read-out: IC50 ± SD
Method: as §1

U87 (glioblastoma) = test: as above; type: cell-based; conditions: Homo sapiens; U87, 24 h treatment, then three days culture, n = 2; read-out: IC50 ± SD
Method: as §1

[6] = sodium phosphate buffer, pH 6.8, 37 °C

## O=C1CCc2ccc(O)c(c2)-c2cc(ccc2O)C[C@H](O)[C@H](O)[C@H]1O [Compound 2, carpinontriol B]
[1]
  aqueous stability at pH 1.2, 6.8, 7.4 (in words): remained intact for the whole study at all pH values; also recorded: stable at all three studied biorelevant pH values
[1]; 9 h, pH 1.2, 37 °C
  relative concentration compared to the initial value: 101.7 ± 4.2 ^a %
[1]; 9 h, pH 6.8, 37 °C
  relative concentration compared to the initial value: 105.2 ± 3.9 ^a %
[1]; 9 h, pH 7.4, 37 °C
  relative concentration compared to the initial value: 102.0 ± 0.9 ^a %
[1]; 81 h, pH 1.2, 37 °C
  relative concentration compared to the initial value: 100.7 ± 5.1 ^a %
[1]; 81 h, pH 6.8, 37 °C
  relative concentration compared to the initial value: 101.9 ± 6.4 ^a %
[1]; 81 h, pH 7.4, 37 °C
  relative concentration compared to the initial value: 101.5 ± 1.1 ^a %
[2]
  IC50: > 100 µM
[3]
  IC50: > 100 µM
[4]
  IC50: > 100 µM
[5]
  IC50: > 100 µM
U87 (glioblastoma)
  IC50: > 100 µM

## O=C1C[C@H](O)[C@@H](O)Cc2ccc(O)c(c2)-c2cc(ccc2O)C[C@H]1O [Compound 1, carpinontriol A]
[1]; 9 h, pH 1.2, 37 °C
  relative concentration compared to the initial value: 97.1 ± 8.9 ^a %
[1]; 9 h, pH 6.8, 37 °C
  relative concentration compared to the initial value: 97.4 ± 1.5% and 97.4 ± 1.5 ^#a %
[1]; 9 h, pH 7.4, 37 °C
  relative concentration compared to the initial value: 96.9 ± 1.2 ^a %
[1]; 81 h, pH 1.2, 37 °C
  relative concentration compared to the initial value: 70.5 ± 2.6% and 70.5 ± 2.6 ^#b %
[1]; 81 h, pH 6.8, 37 °C
  relative concentration compared to the initial value: 75.3 ± 3.0% and 75.3 ± 3.0 ^#b %
[1]; 81 h, pH 7.4, 37 °C
  relative concentration compared to the initial value: 71.5 ± 5.2% and 71.5 ± 5.2 ^#b %
[1]; NaCl/HCl buffer, pH 1.2, 37 °C
  half-life at 100 µM: 167 h
[1]; PBS, pH 7.4, 37 °C
  half-life at 100 µM: 166 h
[1]; pH 1.2, 37 °C
  degradation rate constant k: 0.00415 h⁻¹
[1]; pH 6.8, 37 °C
  degradation rate constant k: 0.00365 h⁻¹
[1]; pH 7.4, 37 °C
  degradation rate constant k: 0.00419 h⁻¹
[1]; [6]
  half-life at 100 µM: 190 h
[2]
  IC50: 14.9 ± 2.3 µM
[3]
  IC50: > 100 µM
[4]
  IC50: > 100 µM
[5]
  IC50: > 100 µM
U87 (glioblastoma)
  IC50: > 100 µM

## O=C1CCc2ccc(O)c(c2)-c2cc(ccc2O)C[C@@H](O)[C@H](O)C1 [Compound 3, giffonin X]
[1]; 9 h, pH 1.2, 37 °C
  relative concentration compared to the initial value: 100.6 ± 6.9 ^a %
[1]; 9 h, pH 6.8, 37 °C
  relative concentration compared to the initial value: 98.9 ± 0.8 ^a %
[1]; 9 h, pH 7.4, 37 °C
  relative concentration compared to the initial value: 82.6 ± 7.7 ^#b %
[1]; 81 h, pH 1.2, 37 °C
  relative concentration compared to the initial value: 83.4 ± 5.3% and 83.4 ± 5.3 ^#b %
[1]; 81 h, pH 6.8, 37 °C
  relative concentration compared to the initial value: 93.2 ± 2.0% and 93.2 ± 2.0 ^#ab %
[1]; 81 h, pH 7.4, 37 °C
  relative concentration compared to the initial value: 46.7 ± 4.7 %
[1]; NaCl/HCl buffer, pH 1.2, 37 °C
  half-life at 100 µM: 298 h
[1]; PBS, pH 7.4, 37 °C
  half-life at 100 µM: 81.6 h
[1]; pH 1.2, 37 °C
  degradation rate constant k: 0.00232 h⁻¹
[1]; pH 6.8, 37 °C
  degradation rate constant k: 0.000838 h⁻¹
[1]; pH 7.4, 37 °C
  degradation rate constant k: 0.00849 h⁻¹
[1]; [6]
  half-life at 100 µM: 827 h
[2]
  IC50: > 100 µM
[3]
  IC50: > 100 µM
[4]
  IC50: > 100 µM
[5]
  IC50: > 100 µM
U87 (glioblastoma)
  IC50: > 100 µM

## O=C1CCC(=O)C(O)Cc2ccc(O)c(c2)-c2cc(ccc2O)C1 (centres unmarked) [Compound 4, 3,12,17-trihydroxytricyclo [12.3.1.1^2,6]nonadeca-1(18),2(19),3,5,14,16-hexaene-8,11-dione]
[1]
  aqueous stability at pH 1.2, 6.8, 7.4 (in words): stable only at pH 7.4
[1]; 9 h, pH 1.2, 37 °C
  relative concentration compared to the initial value: 68.5 ± 4.5%
[1]; 9 h, pH 6.8, 37 °C
  relative concentration compared to the initial value: 105.8 ± 2.6 ^a %
[1]; 9 h, pH 7.4, 37 °C
  relative concentration compared to the initial value: 102.0 ± 3.7 ^a %
[1]; 81 h, pH 1.2, 37 °C
  relative concentration compared to the initial value: 31.0 ± 7.0%
[1]; 81 h, pH 6.8, 37 °C
  relative concentration compared to the initial value: 88.9 ± 2.0%
[1]; 81 h, pH 7.4, 37 °C
  relative concentration compared to the initial value: 103.1 ± 2.2 ^a %
[1]; NaCl/HCl buffer, pH 1.2, 37 °C
  half-life at 100 µM: 54.4 h
[1]; pH 1.2, 37 °C
  degradation rate constant k: 0.0127 h⁻¹
[1]; pH 6.8, 37 °C
  degradation rate constant k: 0.00142 h⁻¹
[1]; [6]
  half-life at 100 µM: 488 h
[2]
  IC50: > 100 µM
[3]
  IC50: > 100 µM
[4]
  IC50: > 100 µM
[5]
  IC50: > 100 µM
U87 (glioblastoma)
  IC50: > 100 µM
